Results from the supplement of paper PMC10627819.

Legend:
B. subtilis 168 [1] = test: fitness (endpoint OD595 vs no drug) (fraction); higher = more growth; conditions: one replicate
Summary of the method: (§1)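 Bacterial fitness was scored as optical density at the stationary-phase transition relative to the robust mean of no-drug control wells. Scores are capped at 1. The growth data were OD595 readings every 30 min for 14 h at 37 °C, background-subtracted against the first reading, from 384-well plates inoculated at OD595 0.01 in TSB, LB Lennox or CY.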

S. aureus DSM 20231 [2] = test: as above
Summary of the method: as §1

S. aureus Newman [3] = test: as above; conditions: one replicate
Summary of the method: as §1

S. pneumoniae D39V [4] = test: as above
Summary of the method: as §1

B. subtilis 168 [5] = test: Bliss interaction score (quartile over a dose matrix) (fitness difference); higher = more antagonism (negative = synergy)
Summary of the method: (§2)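 Fitness was defined as normalised growth: OD595 at the start of stationary phase divided by the plate's robust no-drug mean and capped at 1. Single-drug fitness was inferred from combination measurements. The Bliss score is observed fitness minus the product of the single-drug values, summarised by quartiles across technical, biological and donor/recipient replicates.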

S. aureus DSM 20231 [6] = test: as above
Summary of the method: as §2

S. aureus Newman [7] = test: as above
Summary of the method: as §2

S. pneumoniae D39V [8] = test: as above
Summary of the method: as §2
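Wherever Bliss interaction score (quartile over a dose matrix) is given: first quartile when negative (synergy) and third quartile when positive (antagonism).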
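Wherever fitness (endpoint OD595 vs no drug) is given: OD595 on entry to stationary phase over no-drug wells; at most 1.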

CN(N=O)C(=O)N[C@@H](C=O)[C@@H](O)[C@H](O)[C@H](O)CO [Streptozotocin] + CC1=C\[C@@H](O)CC(=O)Cc2nc(co2)C(=O)N2CCC=C2C(=O)O[C@H](C(C)C)[C@H](C)/C=C/C(=O)NC\C=C\1 [Virginiamycin M1]
fitness
Conditions | partner 0.0625 µg/mL | partner 0.125 µg/mL | partner 0.25 µg/mL | partner 0.5 µg/mL | partner 1 µg/mL | partner 2 µg/mL
B. subtilis 168 [1], first compound 0.15 µg/mL | ≥ 1 | 0.949 | ≥ 1 | – | – | –
B. subtilis 168 [1], first compound 0.3 µg/mL | 0.975 | 0.92 | ≥ 1 | – | – | –
B. subtilis 168 [1], first compound 0.6 µg/mL | 0.991 | 0.944 | 0.958 | – | – | –
S. aureus DSM 20231 [2], first compound 0.15 µg/mL | 0.844 | 0.88 | 0.861 | – | – | –
S. aureus DSM 20231 [2], first compound 0.3 µg/mL | 0.791 | 0.83 | 0.753 | – | – | –
S. aureus DSM 20231 [2], first compound 0.6 µg/mL | 0.66 | 0.714 | 0.681 | – | – | –
S. aureus Newman [3], first compound 0.15 µg/mL | 0.843 | 0.831 | 0.822 | 0.77 | 0.765 | 0.748
S. aureus Newman [3], first compound 0.3 µg/mL | 0.677 | 0.682 | 0.661 | 0.639 | 0.672 | 0.629
S. aureus Newman [3], first compound 0.6 µg/mL | 0.491 | 0.504 | 0.53 | 0.55 | 0.517 | 0.477
S. pneumoniae D39V [4], first compound 1.2 µg/mL | – | – | – | 0.985 | 0.944 | 0.935
S. pneumoniae D39V [4], first compound 2.4 µg/mL | – | – | – | 0.99 | 0.966 | 0.939
S. pneumoniae D39V [4], first compound 4.8 µg/mL | – | – | – | 0.981 | 0.968 | 0.911

fitness, one replicate
Conditions | first compound 0.15 µg/mL | first compound 0.3 µg/mL | first compound 0.6 µg/mL | first compound 1.2 µg/mL | first compound 2.4 µg/mL | first compound 4.8 µg/mL
S. aureus DSM 20231 [2], partner 0.5 µg/mL | 0.616 | 0.686 | 0.581 | – | – | –
S. aureus DSM 20231 [2], partner 1 µg/mL | 0.61 | 0.69 | 0.667 | – | – | –
S. pneumoniae D39V [4], partner 0.15 µg/mL | – | – | – | 0.913 | 0.94 | 0.88
S. pneumoniae D39V [4], partner 0.3 µg/mL | – | – | – | 0.848 | 0.93 | 0.925

Conditions | Bliss interaction score
B. subtilis 168 [5] | 0.0477
S. aureus DSM 20231 [6] | -0.0415
S. aureus Newman [7] | 0.0262
S. pneumoniae D39V [8] | -0.0403
